Results from patent US7547706B2, “1H-pyrimido[4,5-b]indole derivatives, their preparation and therapeutic use” (Sanofi-Aventis, priority 2005, dated 2009).
Where a name gives a salt, the structure may show the parent alone. Marks after values point to notes of the source that are not given here.

Tested on: not given
Assay: not given
Conditions: not given

Compared with CN(C)C(=O)c1nc(-c2cncnc2)nc2c1c1ccc(Cl)cc1n2C [Compound 43, 7-chloro-N,N,9-trimethyl-2-pyrimidin-5-yl-9H-pyrimido[4,5-b]indole-4-carboxamide], Cc1cncc(-c2nc(C(=O)N(C)C)c3c4ccc(Cl)cc4n(C)c3n2)c1 [Compound 42, 7-chloro-N,N,9-trimethyl-2-(5-methylpyridin-3-yl)-9H-pyrimido[4,5-b]indole-4-carboxamide] is lower in melting point: 322 to 325 °C for the first, 313 to 314 °C for the second.

First: COc1cncc(-c2nc(C(=O)N(C)C)c3c4ccc(Cl)cc4n(C)c3n2)c1 [Compound 44, 7-chloro-2-(5-methoxypyridin-3-yl)-N,N,9-trimethyl-9H-pyrimido[4,5-b]indole-4-carboxamide]
Second: CCc1cncc(-c2nc(C(=O)N(C)C)c3c4ccc(Cl)cc4n(C)c3n2)c1 [Compound 41, 7-chloro-2-(5-ethylpyridin-3-yl)-N,N,9-trimethyl-9H-pyrimido[4,5-b]indole-4-carboxamide]
The melting point of the first is higher: 258 to 260 °C for the first, 218 to 219 °C for the second.

First: CN(C)C(=O)Cc1nc(-c2ccncc2)nc2c1c1ccc(Cl)cc1n2C [Compound 21, 2-(7-chloro-9-methyl-2-pyridin-4-yl-9H-pyrimido[4,5-b]indol-4-yl)-N,N-dimethylacetamide]
Second: CN(C)C(=O)Cc1nc(-c2cccnc2)nc2c1c1ccc(Cl)cc1n2C [Compound 22, 2-(7-chloro-9-methyl-2-pyridin-3-yl-9H-pyrimido[4,5-b]indol-4-yl)-N,N-dimethylacetamide]
The melting point of the first is lower: 231 to 232 °C for the first, 248 to 251 °C for the second.

First: Cc1nc(C(=O)N(C)C)c2c3ccc(Cl)cc3n(C)c2n1 [Compound 33, 7-chloro-N,N,2,9-tetramethyl-9H-pyrimido[4,5-b]indole-4-carboxamide]
Second: CC(C)c1nc(C(=O)N(C)C)c2c3ccc(Cl)cc3n(C)c2n1 [Compound 34, 7-chloro-2-isopropyl-N,N,9-trimethyl-9H-pyrimido[4,5-b]indole-4-carboxamide]
The melting point of the first is higher: 193 to 195 °C for the first, 125 to 126 °C for the second.

First: CN(C)C(=O)c1nc(-c2cnc3c(c2)CCCC3)nc2c1c1ccc(Cl)cc1n2C.Cl
Second: Cc1cc(-c2nc(C(=O)N(C)C)c3c4ccc(Cl)cc4n(C)c3n2)cnc1C.Cl
The melting point of the first is higher: 289 to 291 °C for the first, 285 to 289 °C for the second.

Compared with CN(C)C(=O)c1nc(-c2ccccc2)nc2c1c1cc(Cl)ccc1n2C [Compound 4, 6-chloro-N,N,9-trimethyl-2-phenyl-9H-pyrimido[4,5-b]indole-4-carboxamide], CN(C)C(=O)c1nc(-c2ccccc2)nc2c1c1ccc(F)cc1n2C [Compound 3, 7-fluoro-N,N,9-trimethyl-2-phenyl-9H-pyrimido[4,5-b]indole-4-carboxamide] is higher in melting point: 222 to 224 °C for the first, 229 to 231 °C for the second.

First: CN(C)C(=O)c1nc(-c2ccccc2)nc2c1c1ccccc1n2C [Compound 1, N,N,9-trimethyl-2-phenyl-9H-pyrimido[4,5-b]indole-4-carboxamide]
Second: CN(C)C(=O)c1nc(-c2ccccc2)nc2[nH]c3ccccc3c12 [Compound 23, N,N-dimethyl-2-phenyl-9H-pyrimido[4,5-b]indole-4-carboxamide]
The melting point of the first is lower: 193 to 195 °C for the first, 218 to 219 °C for the second.

First: COCc1ccc(-c2nc(C(=O)N(C)C)c3c4ccc(Cl)cc4n(C)c3n2)cn1 [Compound 45, 7-chloro-2-[6-(methoxymethyl)pyridin-3-yl]-N,N,9-trimethyl-9H-pyrimido[4,5-b]indole-4-carboxamide]
Second: CCc1ccc(-c2nc(C(=O)N(C)C)c3c4ccc(Cl)cc4n(C)c3n2)cn1 [Compound 40, 7-chloro-2-(6-ethylpyridin-3-yl)-N,N,9-trimethyl-9H-pyrimido[4,5-b]indole-4-carboxamide]
The melting point of the first is higher: 239 to 241 °C for the first, 232 to 235 °C for the second.

Compared with Cc1nc(-c2nc(C(=O)N(C)C)c3c4ccc(Cl)cc4n(C)c3n2)cs1 [Compound 46, 7-chloro-N,N,9-trimethyl-2-(2-methyl-1,3-thiazol-4-yl)-9H-pyrimido[4,5-b]indole-4-carboxamide], CN(C)C(=O)c1nc(-c2cnccn2)nc2c1c1ccc(Cl)cc1n2C [Compound 18, 7-chloro-N,N,9-trimethyl-2-pyrazin-2-yl-9H-pyrimido[4,5-b]indole-4-carboxamide] is higher in melting point: 256 to 258 °C for the first, 272 to 273 °C for the second.

First: CCOC(=O)c1nc(-c2ccccc2)nc2c1c1ccc(Cl)cc1n2C [Compound 24, Ethyl 7-chloro-9-methyl-2-phenyl-9H-pyrimido[4,5-b]indole-4-carboxylate]
Second: Cn1c2cc(Cl)ccc2c2c(C(=O)O)nc(-c3ccccc3)nc21 [Compound 26, 7-chloro-9-methyl-2-phenyl-9H-pyrimido[4,5-b]indole-4-carboxylic acid]
The melting point of the first is lower: 139 to 140 °C for the first, 208 to 209 °C for the second.

First: CN(C)C(=O)c1nc(-c2ccccc2)nc2[nH]c3cc(Cl)ccc3c12 [Compound 5, 7-chloro-N,N-dimethyl-2-phenyl-9H-pyrimido[4,5-b]indole-4-carboxamide]
Second: CN(C)C(=O)c1nc(-c2cccnc2)nc2c1c1ccc(Cl)cc1n2C [Compound 16, 7-chloro-N,N,9-trimethyl-2-pyridin-3-yl-9H-pyrimido[4,5-b]indole-4-carboxamide]
The melting point of the first is lower: 232 to 233 °C for the first, 283 to 284 °C for the second.

Compared with CN(C)C(=O)c1nc(C2CC2)nc2c1c1ccc(Cl)cc1n2C [Compound 32, 7-chloro-2-cyclopropyl-N,N,9-trimethyl-9H-pyrimido[4,5-b]indole-4-carboxamide], CN(C)C(=O)c1nc(C2CCOCC2)nc2c1c1ccc(Cl)cc1n2C [Compound 35, 7-chloro-N,N,9-trimethyl-2-(tetrahydro-2H-pyran-4-yl)-9H-pyrimido[4,5-b]indole-4-carboxamide] is lower in melting point: 197 to 198 °C for the first, 174.5 to 175.5 °C for the second.

First: COc1cc(-c2nc(C(=O)N(C)C)c3c4ccc(Cl)cc4n(C)c3n2)ccn1 [Compound 30, 7-chloro-2-(2-methoxypyridin-4-yl)-N,N,9-trimethyl-9H-pyrimido[4,5-b]indole-4-carboxamide]
Second: COc1ccc(-c2nc(C(=O)N(C)C)c3c4ccc(Cl)cc4n(C)c3n2)cn1 [Compound 28, 7-chloro-2-(6-methoxypyridin-3-yl)-N,N,9-trimethyl-9H-pyrimido[4,5-b]indole-4-carboxamide]
The melting point of the first is higher: 278 to 279 °C for the first, 267 to 268 °C for the second.

First: Cn1c2cc(Cl)ccc2c2c(C(=O)N3CCCC3)nc(-c3ccncc3)nc21 [Compound 14, 7-chloro-9-methyl-2-pyridin-4-yl-4-(pyrrolidin-1-ylcarbonyl)-9H-pyrimido[4,5-b]indole]
Second: CN1CCN(C(=O)c2nc(-c3ccccc3)nc3c2c2ccc(Cl)cc2n3C)CC1 [Compound 11, 7-chloro-9-methyl-4-[(4-methylpiperazin-1-yl)carbonyl]-2-phenyl-9H-pyrimido[4,5-b]indole]
The melting point of the first is higher: 256 to 258 °C for the first, 236 to 238 °C for the second.

First: CC(C)Cn1c2cc(Cl)ccc2c2c(C(=O)N(C)C)nc(-c3ccncc3)nc21 (as salt: HCl) [Compound 31, 7-chloro-9-isobutyl-N,N-dimethyl-2-pyridin-4-yl-9H-pyrimido[4,5-b]indole-4-carboxamide]
Second: CN(C)C(=O)c1nc(-c2ccc(Cl)nc2)nc2c1c1ccc(Cl)cc1n2C [Compound 37, 7-chloro-2-(6-chloropyridin-3-yl)-N,N,9-trimethyl-9H-pyrimido[4,5-b]indole-4-carboxamide]
The melting point of the first is lower: 230 to 236 °C for the first, 275 to 276 °C for the second.

First: CCOc1ccc(-c2nc(C(=O)N(C)C)c3c4ccc(Cl)cc4n(C)c3n2)cn1 [Compound 39, 7-chloro-2-(6-ethoxypyridin-3-yl)-N,N,9-trimethyl-9H-pyrimido[4,5-b]indole-4-carboxamide]
Second: CN(C)Cc1ccc(-c2nc(C(=O)N(C)C)c3c4ccc(Cl)cc4n(C)c3n2)cn1 (as salt: HCl) [Compound 47, 7-chloro-2-{6-[(dimethylamino)methyl]pyridin-3-yl}-N,N,9-trimethyl-9H-pyrimido[4,5-b]indole-4-carboxamide]
The melting point of the first is lower: 237 to 239 °C for the first, 240 to 242 °C for the second.

With Cc1cc(-c2nc(C(=O)N(C)C)c3c4ccc(Cl)cc4n(C)c3n2)cc(C)n1.Cl the melting point was 288 to 292 °C.

Tested on: motor neurons of the facial nucleus
Assay: Survival of the motor neurons after sectioning the facial nerve in rats aged 4 days
Type: in vivo, rat
Conditions: via oral route, at 10 mg/kg; treated for 7 days; facial nerve lesion in 4 day old rats
Experimental: Test of Survival of the Motor Neurons after Sectioning the Facial Nerve in Rats Aged 4 Days
After lesion of the facial nerve in immature rats, the motor neurons of the facial nucleus underwent neuronal death by apoptosis. Neural survival was evaluated using histological methods and neuronal counting.
4 day old immature rats were anesthetized with pentobarbital (3 mg/kg by the i.p. route). The right facial nerve was exposed and sectioned, at its outlet from the stylomastoid foramen. After waking up, the young rats were returned to their mothers and treated for 7 days with one or two daily administrations, via oral or intraperitoneal route, at doses ranging from 1 to 10 mg/kg.
7 days after the lesion, the animals were decapitated and the brains frozen in isopentane at −40° C. The entire facial […] was cut with a cryostat into 10 μm sections. The motor neurons were colored with cresyl violet and counted using the Histo™ software (Biocom™).

In the case of CN(C)C(=O)Cc1nc(-c2ccccc2)nc2c1c1ccc(Cl)cc1n2C [Compound 19, 2-(7-chloro-9-methyl-2-phenyl-9H-pyrimido[4,5-b]indol-4-yl)-N,N-dimethylacetamide], the “% increase of neuronal survival” value is reported as “+21* %”.
In the case of CN(C)C(=O)c1nc(-c2ccccc2)nc2c1c1ccc(Cl)cc1n2C [Compound 2, 7-chloro-N,N,9-trimethyl-2-phenyl-9H-pyrimido[4,5-b]indole-4-carboxamide], the “% increase of neuronal survival” value is reported as “+25* %”.
In the case of CN(C)C(=O)c1nc(-c2ccncc2)nc2c1c1ccc(Cl)cc1n2C [Compound 15, 7-chloro-N,N,9-trimethyl-2-pyridin-4-yl-9H-pyrimido[4,5-b]indole-4-carboxamide], the “% increase of neuronal survival” value is reported as “+40* %”.

Target: T1, peripheral benzodiazepine receptors (p or PBR sites) (Rattus norvegicus, UniProt P16257)
T1 construct: After decapitation, the kidney was removed and the tissue was homogenized; from tissue; host or cells: kidney membrane homogenate of male Sprague Dawley rats
Assay: Binding of [3H]Ro5-4864 to peripheral benzodiazepine receptors in rat kidney membranes
Conditions: [3H]Ro5-4864 0.5 nM, 3 h at 0° C., read-out: IC50, concentration which inhibits 50% of the specific binding of [3H]Ro5-4864

Point of comparison: CN(C)C(=O)c1nc(-c2ccccc2)nc2c1c1ccc(Cl)cc1n2C [Compound 2, 7-chloro-N,N,9-trimethyl-2-phenyl-9H-pyrimido[4,5-b]indole-4-carboxamide], IC50 2.2 nM. Against it:
- CN(C)C(=O)Cc1nc(-c2ccccc2)nc2c1c1ccc(Cl)cc1n2C [Compound 19, 2-(7-chloro-9-methyl-2-phenyl-9H-pyrimido[4,5-b]indol-4-yl)-N,N-dimethylacetamide] — 1.7-fold lower, 1.3 nM
- CN(C)C(=O)c1nc(-c2ccncc2)nc2c1c1ccc(Cl)cc1n2C [Compound 15, 7-chloro-N,N,9-trimethyl-2-pyridin-4-yl-9H-pyrimido[4,5-b]indole-4-carboxamide] — within 1.5-fold, 3.1 nM
